Publication PMC11996864, “A small-molecule inhibitor of BCL10-MALT1 interaction abrogates progression of diffuse large B cell lymphoma” (The Journal of Clinical Investigation, 2025)
Where “and” joins values, the source holds several entries; their conditions need not be identical. Equal values may be shown once.

Tests used:
[1] = system: ERK1/2 phosphorylation in Jurkat T cells; assay: ERK phosphorylation after CD3/CD28 stimulation (MALT1-independent control); format: cell-based, human; settings: for ERK phosphorylation: result in words; for pERK 1/2 (normalized): Jurkat, 1 μM;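 for pERK 1/2 (normalized): Phosphorylated ERK1/2 relative to total ERK1/2 protein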
Method: Western blot analysis of RelB and N4BP1 cleavage was used to test the effect of small molecules on MALT1 protease activity. To this end, 3 million Jurkat T cells were pretreated with compounds for 24 hours in serum-free media, and then 5 μM MG-132 was added for 1 hour before stimulation with CD3/CD28 (Stemcell Technologies, catalog 10971), and lysed in RIPA buffer (Millipore, catalog 20-188) with protease and phosphatase inhibitor cocktail (Pierce, catalog 78446). IKKα/β phosphorylation and IκBα phosphorylation were used as measures of MALT1 scaffolding activity, while ERK1/2 phosphorylation was used as a control. […] For experiments evaluating RelB cleavage and phosphorylation of IκBα in TMD8 cells, cells were treated with compounds for 24 hours in media containing 5% FBS. For RelB Western blot analysis, 5 μM MG-132 (Cell Signaling Technology, catalog 2194s) was added 4 hours before lysis in RIPA lysis buffer with protease/phosphatase inhibitors.

[2] = system: OCI-Ly3 cells; assay: IL-6 and IL-10 secretion, cytokine ELISA; format: cell-based, human; settings: for IL-6 and IL-10 secretion: OCI-Ly3, result in words; for IL-6 protein (normalized) / IL-10 protein (normalized): OCI-Ly3 cells, individual replicates n=3
Method: (§1) Cytokine ELISAs. Cytokines in cell culture supernatants were measured 20-24h after treatment with 0, 0.01, 0.03, 0.1, 0.3, 1, or 3 µM of compounds using the following ELISA kits according to the manufacturer’s instructions: Human IL-2 ELISA (BioLegend Cat# 431804), Human IL-6 ELISA (BioLegend Cat# 430504), and Human IL-10 ELISA (BioLegend Cat# 430604). […]

[3] = system: TMD8 cells; assay: IL-6 and IL-10 secretion, cytokine ELISA; format: cell-based, human; settings: for IL-6 and IL-10 secretion: TMD8, result in words
Method: as §1

[4] = system: OCI-Ly3 cells; assay: cells; set-up: species or system TMD8 or OCI-Ly3; Inhibition of spontaneous IL-6 secretion from ABC-DLBCL cells, human IL-6 ELISA of supernatants; settings: Homo sapiens, OCI-Ly3, 20 h; IL-6 secretion; read-out: IC50 (µM) IL-6 inhibition
Method: (§2) Cytokine ELISAs. Cytokines in cell culture supernatants were measured 20-24h after treatment with 0, 0.01, 0.03, 0.1, 0.3, 1, or 3 µM of compounds using the following ELISA kits according to the manufacturer’s instructions: Human IL-2 ELISA (BioLegend Cat# 431804), Human IL-6 ELISA (BioLegend Cat# 430504), and Human IL-10 ELISA (BioLegend Cat# 430604). TMD8 and OCI-Ly3 cells were treated with specific doses of compounds in serum-free media for 20 hours. Jurkat T cells were pretreated with specific doses of compounds for 8 hours in serum-free media, then stimulated with PMA/ionomycin for 16 hours prior to the collection of supernatants. Mouse splenocytes were isolated from spleens of C57/BL6 mice by passing spleens through a 70 micron filter followed by red blood cell lysis using ACK lysing buffer (Quality Biologics, Cat# 118-156-101). […] Supernatant was collected at 24 hours and mouse IL-2 levels were analyzed via ELISA (R&D Systems, Cat# DY402-05). IL-6 and IL-10 are NF-κB–induced cytokines that promote the proliferation and survival of malignant B cells through both autocrine and paracrine mechanisms ([44]), and are negative prognostic factors in ABC-DLBCL ([45], [46]). ABC-DLBCL cell lines spontaneously secrete substantial levels of IL-6 and IL-10, whereas GCB-DLBCL cell lines express only a negligible amount of these cytokines ([24]). […] The IC50 for inhibition of cytokine secretion by each compound in each cell line is reported in Supplemental Table 1.  Figure 4 M1i-124 and M1i-124d1 inhibit MALT1 protease and scaffolding functions, and MALT1-dependent cytokine secretion, in ABC-DLBCL cells. (A and B) Effect of 1 μM compound pretreatment on constitutive RelB cleavage (A) and IκB phosphorylation (B) within TMD8 cells. Representative Western blots are shown along with quantification (mean ± SEM; n = 2). (C) IL6 and IL10 mRNA levels in TMD8 cells treated with 1 μM M1i-124 or M1i-124d1 (mean ± SEM; n = 6). […] Statistical analyses were performed using 1-way ANOVA and Dunnett’s multiple-comparison test. **P < 0.01, ***P < 0.001, ****P < 0.0001.

[5] = system: TMD8 cells; assay: cells; set-up: species or system TMD8 or OCI-Ly3; Inhibition of spontaneous IL-6 secretion from ABC-DLBCL cells, human IL-6 ELISA of supernatants; settings: Homo sapiens, TMD8, 20 h; IL-6 secretion; read-out: IC50 (µM) IL-6 inhibition
Method: as §2

## O=S(=O)(NCc1ccc2c(c1)OCO2)c1ccc(Cc2ccc(S(=O)(=O)NCc3ccc4c(c3)OCO4)cc2)cc1 [M1i-124]
[1]
  ERK phosphorylation: unaffected
[2]
  IL-6 and IL-10 secretion: dose-dependent reduction of IL-6 and IL-10 secretion
[2]; dose 0.01 µM
  IL-6 protein (normalized): 107.046 and 97.7137 and 87.0295
  IL-10 protein (normalized): 103.16 and 104.534 and 97.5052
[2]; dose 0.03 µM
  IL-6 protein (normalized): 96.5093 and 109.876 and 83.6147
  IL-10 protein (normalized): 91.281 and 93.6459 and 78.8249
[2]; dose 0.1 µM
  IL-6 protein (normalized): 75.4106 and 89.2481 and 95.3244
  IL-10 protein (normalized): 87.8156 and 90.4046 and 87.8267
[2]; dose 0.3 µM
  IL-6 protein (normalized): 61.7285 and 64.3367 and 64.4209
  IL-10 protein (normalized): 53.7308 and 68.0081 and 65.3126
[2]; dose 1 µM
  IL-6 protein (normalized): 45.5755 and 29.5412 and 43.2472
  IL-10 protein (normalized): 42.8574 and 34.5822 and 37.4365
[2]; dose 3 µM
  IL-6 protein (normalized): 32.8587 and 36.4245 and 37.9702
  IL-10 protein (normalized): 27.1129 and 25.9246 and 27.6249
[3]; Homo sapiens, cell-based assays measuring functional MALT1 inhibition, span over cytokines and cell lines (TMD8, OCI-Ly3; Supplemental Table 1)
  IC50: 500 to 1300 nM
[3]; TMD8, Dose (µM) 0.01
  IL-6 protein (normalized): 95.9364 and 102.213 and 93.8323
  IL-10 protein (normalized): 92.0215 and 104.795 and 93.5401
[3]; TMD8, Dose (µM) 0.03
  IL-6 protein (normalized): 87.0698 and 93.9663 and 88.6054
  IL-10 protein (normalized): 92.6437 and 90.5031 and 81.0478
[3]; TMD8, Dose (µM) 0.1
  IL-6 protein (normalized): 69.9434 and 74.7992 and 78.3531
  IL-10 protein (normalized): 68.4368 and 67.4137 and 68.4567
[3]; TMD8, Dose (µM) 0.3
  IL-6 protein (normalized): 69.7251 and 64.7937 and 50.8437
  IL-10 protein (normalized): 56.1427 and 56.6527 and 44.4473
[3]; TMD8, Dose (µM) 1
  IL-6 protein (normalized): 36.3116 and 40.2609 and 34.3135
  IL-10 protein (normalized): 37.7839 and 38.0405 and 34.7537
[3]; TMD8, Dose (µM) 3
  IL-6 protein (normalized): 26.8371 and 27.7392 and 25.9151
  IL-10 protein (normalized): 23.1611 and 23.3192 and 20.6767
[3]
  IL-6 and IL-10 secretion: dose-dependent reduction of IL-6 and IL-10 secretion
[4]
  IC50: 0.8 µM
[5]
  IC50: 1.3 µM

## COc1ccc(CNS(=O)(=O)c2ccc(Cc3ccc(S(=O)(=O)NCc4ccc(OC)cc4)cc3)cc2)cc1 [M1i-124d1]
[1]; CD3/CD28 5 min
  pERK 1/2 (normalized): 1.155 and 0.776 and 1.27 and 0.7498 and 0.998
[1]; CD3/CD28 10 min
  pERK 1/2 (normalized): 1.2674 and 0.9152 and 1.197 and 0.7135 and 0.9691
[1]; CD3/CD28 15 min
  pERK 1/2 (normalized): 1.05 and 0.8514 and 1.066 and 0.6774 and 0.9099
[1]; CD3/CD28 20 min
  pERK 1/2 (normalized): 0.8015 and 0.6878 and 0.9541 and 0.7317 and 0.9634
[1]
  ERK phosphorylation: unaffected
[2]
  IL-6 and IL-10 secretion: dose-dependent reduction of IL-6 and IL-10 secretion
[2]; dose 0.01 µM
  IL-6 protein (normalized): 99.5607 and 97.9207 and 112.031
  IL-10 protein (normalized): 79.7769 and 92.2916 and 96.3976
[2]; dose 0.03 µM
  IL-6 protein (normalized): 98.1802 and 88.2708 and 79.406
  IL-10 protein (normalized): 92.2982 and 70.1649 and 75.2443
[2]; dose 0.1 µM
  IL-6 protein (normalized): 82.137 and 88.0559 and 90.8694
  IL-10 protein (normalized): 78.4383 and 79.1463 and 60.8949
[2]; dose 0.3 µM
  IL-6 protein (normalized): 78.0338 and 77.6618 and 76.9556
  IL-10 protein (normalized): 68.3626 and 76.063 and 76.9269
[2]; dose 1 µM
  IL-6 protein (normalized): 82.5608 and 76.3464 and 79.062
  IL-10 protein (normalized): 58.0215 and 44.447 and 56.2881
[2]; dose 3 µM
  IL-6 protein (normalized): 67.8445 and 70.7121 and 79.6228
  IL-10 protein (normalized): 43.78 and 51.6743 and 38.3491
[3]; TMD8, Dose (µM) 0.01
  IL-6 protein (normalized): 93.5197 and 93.7514 and 94.5387
  IL-10 protein (normalized): 69.769 and 89.382 and 96.8917
[3]; TMD8, Dose (µM) 0.03
  IL-6 protein (normalized): 91.3047 and 88.3022 and 85.704
  IL-10 protein (normalized): 62.2564 and 54.1514 and 73.6549
[3]; TMD8, Dose (µM) 0.1
  IL-6 protein (normalized): 77.5452 and 70.6916 and 62.4629
  IL-10 protein (normalized): 60.4815 and 45.5606 and 38.3417
[3]; TMD8, Dose (µM) 0.3
  IL-6 protein (normalized): 55.6968 and 55.4486 and 52.1775
  IL-10 protein (normalized): 40.1613 and 36.3491 and 28.9939
[3]; TMD8, Dose (µM) 1
  IL-6 protein (normalized): 45.5895 and 45.5473 and 39.027
  IL-10 protein (normalized): 29.9544 and 27.9974 and 29.4587
[3]; TMD8, Dose (µM) 3
  IL-6 protein (normalized): 41.6763 and 36.3341 and 29.5994
  IL-10 protein (normalized): 27.5683 and 24.6599 and 35.0793
[3]
  IL-6 and IL-10 secretion: dose-dependent reduction of IL-6 and IL-10 secretion
[4]
  IC50: > 3 µM
[5]
  IC50: 0.8 µM
